Experimental data from BindingDB's records for doi:10.1016/j.bmc.2010.01.042 (Nerviano Medical Sciences, 2010).

Target: 3-phosphoinositide-dependent protein kinase 1 (Homo sapiens) (UniProt O15530)
Test: Inhibition of PDK1 by scintillation proximity assay

IC50 [µM] | SMILES
> 10 | CC(C)(C)C(=O)N1Cc2c(n[nH]c2NC(=O)c2cc(F)cc(F)c2)C1(C)C [N-[5-(2,2-Dimethylpropanoyl)-6,6-dimethyl-1,4,5,6-tetrahydropyrrolo[3,4-c]pyrazol-3-yl]-3,5-difluorobenzamide]
> 10 | CC(C)CC(=O)Nc1[nH]nc2c1CN(C(=O)C1CCN(C)CC1)C2(C)C
